Experimental findings from ChEMBL document CHEMBL1135102, “2-Amino-7-deazaadenine forms stable base pairs with cytosine and thymine” (Bioorg Med Chem Lett, 2002) are described below.

Holding throughout (type): ADME
A short description of data set [1]: Kinetic parameter Km was determined.
Data set [2] can be described thus: Efficiency expressed as ratio of Vmax to that of Km was determined.
A short description of data set [3]: Kinetic parameter Vmax was determined.

One may read the Km as the substrate concentration at which the rate is half of its maximum.

Regarding `Nc1nc2c(ncn2[C@H]2C[C@H](O)[C@@H](COP(=O)(O)OP(=O)(O)OP(=O)(O)O)O2)c(=O)[nH]1` [DEOXYGUANOSINE TRIPHOSPHATE], in data set [1], the Km stood at 62 µM. Also, the Ratio in data set [2] stood at 0.211. Besides, the Vmax in data set [3] came out at 13.1 pmol/U/min.
Consider `Nc1ncnc2c1ncn2[C@H]1C[C@H](O)[C@@H](COP(=O)(O)OP(=O)(O)OP(=O)(O)O)O1`, for which the Km in data set [1] is 22 µM. The Ratio in data set [2] came out at 0.0452. Besides, in data set [3], the Vmax came out at 0.994 pmol/U/min.
In the case of `Nc1ccn([C@H]2C[C@H](O)[C@@H](COP(=O)(O)OP(=O)(O)OP(=O)(O)O)O2)c(=O)n1` [DEOXYCYTIDINE TRIPHOSPHATE], in data set [1], the Michaelis constant (Km) is 25.6 µM. Further, in data set [2], the Ratio is 0.73. The Vmax in data set [3] came out at 18.7 pmol/U/min.
